{"source": "patent US9155784B2", "about": "“Anti-TNF-α therapy for the mucopolysaccharidoses and other lysosomal disorders” (Icahn School of Medicine at Mount Sinai, priority 2011, dated 2015)", "assay_type_in_all_cases": "in vivo, rat", "key": {"TNF-α": {"test_system": "TNF-α", "test": "TNF-α immunostaining of articular cartilage, MPS VI rats", "settings": "MPS VI rats treated 8 months, vs untreated", "protocol": "(§1) Femora from 37-week-old normal, untreated MPS VI and treated MPS VI rats were fixed, embedded, sectioned, and stained with toluidine blue and H & E. Immunohistochemical studies were performed as well. For immunohistochemistry, sections were fixed with 4% paraformaldehyde/PBS, permeabilized with 0.5% Triton-X-100, blocked, and incubated overnight at 4° C. with primary rabbit polyclonal anti-mouse collagen type IIA1 (rabbit polyclonal […], Santa Cruz Biotechnology) and TNF-α antibody (goat polyclonal sc-1348, Santa Cruz Biotechnology). After several rinses with PBS, visualization was accomplished using a fluorescent secondary antibody, donkey anti-goat IgG-Cy-3 (711-165-152, Jackson Laboratory). Nuclei were stained with 1 mg/ml bis-benzimide Hoechst dye (Sigma-Aldrich) for 10 min, rinsed, and sections were mounted with an anti-bleaching mounting media. Slides were visualized and photographed with a confocal laser-scanning microscope (Carl Zeiss 510 Meta)."}, "MPS VI rats [1]": {"test_system": "MPS VI rats", "test": "Synovium / knee joint histology, MPS VI rats", "settings": "MPS VI rats treated 8 months, knee cross sections", "protocol": "as §1\nFIG. 1A summarizes the serum levels of TNF-α and RANKL at the end of the study. Both inflammatory markers were highly elevated in untreated MPS VI rats as compared to normal animals, and both treatment protocols led to significant reductions. […] The synovial membranes (*) were hyperplastic in untreated MPS VI rats, leading to the formation of synovial villi (SV). […]"}, "MPS VI rats [2]": {"test_system": "MPS VI rats", "test": "Accelerating rotarod (locomotor function), MPS VI rats, ERT and combined treatment", "settings": "10 RPM, maximum time 180 seconds; untreated MPS VI mean 70 seconds", "excerpt": "Age-matched 37-week-old normal and untreated MPS VI and treated MPS VI rats were placed on an accelerating Rotarod series 8 (IITC Life Science) for evaluation as described previously (Cotugno et al., “Different Serum Enzyme Levels are Required to Rescue the Various Systemic Features of the Mucopolysaccharidoses,” Hum. Gene Ther. 21:555-69 (2010), which is hereby incorporated by reference in its entirety). Animals were primed on the rod for two consecutive days prior to the actual recording. The rotarod was set at increasing speeds from 10 to 30 rpm over 3 minutes, and an average of the latency to fall off from the rod was recorded. Results were analyzed by one-way analysis of variance (ANOVA) with the variable group."}, "MPS VI rats [3]": {"test_system": "MPS VI rats", "test": "Gait (motility) analysis from paw prints, MPS VI rats", "protocol": "The fore and hind paws of treated and control animals were stained with two different colors using non-toxic dye. The rats were trained to walk through a tunnel for two consecutive days, leaving their paw prints on blotting paper. On the third day several parameters were measured; distance between the left and right front paws in the longitudinal direction, the angle that was formed, and the distance between the front and hind right paws. For statistical analysis, group differences were assessed using multivariate analyses of variance (MANOVAs), followed by post hoc Bonferroni adjustments for all time points tested."}, "MPS VI rats [4]": {"test_system": "MPS VI rats", "test": "Femora and tibia length by microCT / caliper, MPS VI rats", "settings": "37 weeks of age, vs untreated MPS VI", "protocol": "(§2) Three-dimensional images of the 37-week-old femora from age-matched normal, untreated and treated MPS VI rats were obtained using the eXplore Locus SP PreClinical Specimen microCT system (GE Healthcare; London, Ontario, Canada). Scans were performed at a voxel size of 14.4 μm. The scan protocol consisted of 3600 image acquisitions over a five hour scan (acquisition parameters: 80 kVp, 80 uA, 3 second exposure time [˜690], 0.010″ aluminum beam filter). A calibration phantom containing air, water, and hydroxyapatite (SB3: Gamex RMI, Middleton, Wis., USA) was included in all scans to adjust for the variability in X-ray attenuation inherent to independent scan sessions.\n(§3) Limb and trachea measurements were taken at the end of the study (37 weeks of age). The length of each femur was measured from the microCT images using the Microview software. The greater trochanter was used as the proximal margin of the femur, whereas the extent of the distal condyles was considered the distal margin. Thus, the length of each femur was computed roughly along the vertical axis of the bone. For validation, the physical femora and tibia lengths, as well as the width of the tracheas, was measured with a digital caliper. The mean of the two treatment groups (ERT and combined ERT/CNTO1081) were compared using standard student t test analysis."}, "MPS VI rats [5]": {"test_system": "MPS VI rats", "test": "MicroCT analysis of bone micro-architecture (trabecular, cortical, robustness), MPS VI rats", "settings": "mid-diaphyseal femur, vs untreated; fell short of statistical significance", "protocol": "as §2\nA representative mid-diaphyseal region of each femoral microCT image was isolated for analysis. […] The analysis region was not restricted by measured size to accommodate variances in bone length. […] The MicroView software was employed to quantify morphological traits.\nThe microCT images were further processed to quantify the tissue mineral density (TMD) of cortical bone within each sample. […] TMD was calculated by converting the gray-scale values of bone voxels from Hounsfield units (HU) to mineral values (mg/cc of HA) through the use of a calibration phantom containing air, water, and HA (Gamex RMI, Middleton, Wis., USA). […]"}, "MPS VI rats [6]": {"test_system": "MPS VI rats", "test": "Trachea measurements and gross morphology, MPS VI rats", "protocol": "as §3"}}, "data": [{"substance": "recombinant human N-acetylgalactosamine-4-sulfatase [ERT]", "values": [{"measurement": "TNF-α immunostaining in the articular cartilage", "setting": "TNF-α", "value": "modestly reduced"}, {"measurement": "synovial inflammation and formation of villi", "setting": "MPS VI rats [1]", "value": "did not reduce"}, {"measurement": "time on the rotating bar", "setting": "MPS VI rats [2]", "value": 180, "unit": "s"}, {"measurement": "distance for the front paw per step", "setting": "MPS VI rats [3]; untreated MPS VI 2.8 cm", "value": 4.2, "unit": "cm"}, {"measurement": "distance the animals moved their rear paws", "setting": "MPS VI rats [3]; untreated MPS VI 4.9 cm", "value": "not changed"}, {"measurement": "angle of the hind paw movement", "setting": "MPS VI rats [3]; untreated MPS VI 60°", "value": 45, "unit": "°"}, {"measurement": "increase in femora length", "setting": "MPS VI rats [4]", "value": "No improvements were observed"}, {"measurement": "increase in tibia length", "setting": "MPS VI rats [4]", "value": "No improvement was observed"}, {"measurement": "cortical area and relative cortical area", "setting": "MPS VI rats [5]", "value": "greater"}, {"measurement": "tracheal abnormalities (thickened, collapsed tracheas), gross inspection", "setting": "MPS VI rats [6]; 37 weeks of age", "value": "not altered"}, {"measurement": "trachea cross-sectional area", "setting": "MPS VI rats [6]; 37 weeks, untreated 2.9±0.6, normal 7.5±0.8", "value": "3.6±0.5", "unit": "mm^2"}]}]}
